# Data: US12264156B2, “Compounds and pharmaceutical compositions thereof for the treatment of diseases” (GALAPAGOS NV, priority 2018, dated 2025)
# pIC50: −log10 of the molar value.
# Key:
# Format in all cases: biochemical
# Conditions in all cases: ADP-Glo SIK kinase assay
# SIK3 = molecular target: T1, SIK3 (Homo sapiens, UniProt Q9Y2K2); experiment: ADP-Glo kinase assay, SIK3
# T1 construct: purchased SignalChem S12-11G-100
# Description: (§1) The ADP-Glo™ kinase assay is a luminescent technology assay which measures the ADP formed from a kinase reaction. […] In a second step the kinase reactions are terminated and all the remaining ATP is depleted. In a final step the ADP is converted into ATP and this newly synthesized ATP is measured by using a luciferase/luciferin reaction. The generated light is measured using an Envision plate reader, wherein the luminescent signal obtained positively correlates with the kinase activity.
# (§2) 1% DMSO and 10 μM staurosporine final concentrations are used as negative and positive controls.
# (§3) 2 μL enzyme-substrate mixture is added to the assay plates.
# (§4) The reaction is started by adding 2 μL diluted ATP on the assay plates. Plates are centrifuged for a few seconds at 1000 rpm and gently shaken for 2 min followed by an incubation at RT for 120 min.
# (§5) The reactions are stopped and the unconsumed ATP is depleted by adding 5 μL ADP-Glo Reagent (Promega, Cat #V912B) to the reaction. The plates are centrifuged for a few seconds at 1000 rpm and incubated at RT for 40 min (ATP depletion).
# (§6) The ADP is converted to ATP and luciferase and luciferin is introduced to detect ATP by adding 10 μL Kinase Detection Reagent (Promega, Cat #V913B+V914B) to the reaction. The plates are centrifuged for a few seconds at 1000 rpm and incubated at RT for 30 min (ADP detection).
# (§7) Luminescence is measured on an Envision plate reader (PerkinElmer Inc.).
# SIK1 = molecular target: T2, SIK1 (Homo sapiens, UniProt P57059); experiment: ADP-Glo kinase assay, SIK1
# T2 construct: purchased Carna Biosciences 02-131
# Description: as §1, §2, §3, §4, §5, §6, §7
# SIK2 = molecular target: T3, SIK2 (Homo sapiens, UniProt Q9H0K1); experiment: ADP-Glo kinase assay, SIK2
# T3 construct: purchased ThermoFisher Scientific PV4792
# Description: as §1, §2, §3, §4, §5, §6, §7
# T2 sequence (P57059 whole entry): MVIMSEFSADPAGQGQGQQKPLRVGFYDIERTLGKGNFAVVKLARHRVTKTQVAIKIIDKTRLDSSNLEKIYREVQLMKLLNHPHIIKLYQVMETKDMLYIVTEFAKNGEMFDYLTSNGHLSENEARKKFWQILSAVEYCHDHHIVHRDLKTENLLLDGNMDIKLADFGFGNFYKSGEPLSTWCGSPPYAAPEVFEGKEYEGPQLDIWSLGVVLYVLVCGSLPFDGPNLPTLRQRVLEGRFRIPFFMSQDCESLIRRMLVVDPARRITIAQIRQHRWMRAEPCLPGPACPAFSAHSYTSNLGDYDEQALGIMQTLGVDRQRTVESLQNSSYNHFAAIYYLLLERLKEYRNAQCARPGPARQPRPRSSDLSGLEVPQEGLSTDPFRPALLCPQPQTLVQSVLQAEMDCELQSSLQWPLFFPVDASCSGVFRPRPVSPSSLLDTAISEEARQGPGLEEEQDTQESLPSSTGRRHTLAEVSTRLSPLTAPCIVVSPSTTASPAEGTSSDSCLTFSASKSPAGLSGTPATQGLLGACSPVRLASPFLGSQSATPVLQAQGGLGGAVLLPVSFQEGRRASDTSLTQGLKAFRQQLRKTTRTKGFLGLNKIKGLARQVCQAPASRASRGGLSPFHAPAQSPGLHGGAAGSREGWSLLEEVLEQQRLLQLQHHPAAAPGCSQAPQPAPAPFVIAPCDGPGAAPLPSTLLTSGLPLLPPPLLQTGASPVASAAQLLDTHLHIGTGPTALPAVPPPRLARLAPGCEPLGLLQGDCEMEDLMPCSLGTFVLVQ
# T3 sequence (Q9H0K1 whole entry): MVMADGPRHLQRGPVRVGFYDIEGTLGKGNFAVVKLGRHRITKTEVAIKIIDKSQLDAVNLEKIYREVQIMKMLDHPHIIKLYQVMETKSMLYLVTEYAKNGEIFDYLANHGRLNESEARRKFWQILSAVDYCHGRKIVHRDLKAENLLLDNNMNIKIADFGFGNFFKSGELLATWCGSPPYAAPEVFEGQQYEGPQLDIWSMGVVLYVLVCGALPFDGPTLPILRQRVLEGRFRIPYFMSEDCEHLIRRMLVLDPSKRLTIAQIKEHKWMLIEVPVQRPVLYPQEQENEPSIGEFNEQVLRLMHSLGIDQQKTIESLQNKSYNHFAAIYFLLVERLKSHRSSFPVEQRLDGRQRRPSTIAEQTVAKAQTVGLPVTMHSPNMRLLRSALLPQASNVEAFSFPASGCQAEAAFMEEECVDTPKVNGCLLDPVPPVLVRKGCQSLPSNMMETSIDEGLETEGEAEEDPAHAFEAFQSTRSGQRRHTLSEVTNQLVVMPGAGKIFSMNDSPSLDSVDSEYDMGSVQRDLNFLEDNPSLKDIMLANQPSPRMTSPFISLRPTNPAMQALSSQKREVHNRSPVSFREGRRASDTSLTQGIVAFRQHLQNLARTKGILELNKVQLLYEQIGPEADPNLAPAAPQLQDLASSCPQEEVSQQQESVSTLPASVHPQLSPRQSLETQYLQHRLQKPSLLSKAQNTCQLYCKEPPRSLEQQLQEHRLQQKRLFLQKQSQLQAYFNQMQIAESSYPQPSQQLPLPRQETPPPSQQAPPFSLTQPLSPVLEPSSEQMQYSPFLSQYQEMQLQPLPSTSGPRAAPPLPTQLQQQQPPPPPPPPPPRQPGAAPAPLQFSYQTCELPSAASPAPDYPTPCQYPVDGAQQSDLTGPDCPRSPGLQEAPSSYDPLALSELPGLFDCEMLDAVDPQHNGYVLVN
# T1 sequence (Q9Y2K2 whole entry): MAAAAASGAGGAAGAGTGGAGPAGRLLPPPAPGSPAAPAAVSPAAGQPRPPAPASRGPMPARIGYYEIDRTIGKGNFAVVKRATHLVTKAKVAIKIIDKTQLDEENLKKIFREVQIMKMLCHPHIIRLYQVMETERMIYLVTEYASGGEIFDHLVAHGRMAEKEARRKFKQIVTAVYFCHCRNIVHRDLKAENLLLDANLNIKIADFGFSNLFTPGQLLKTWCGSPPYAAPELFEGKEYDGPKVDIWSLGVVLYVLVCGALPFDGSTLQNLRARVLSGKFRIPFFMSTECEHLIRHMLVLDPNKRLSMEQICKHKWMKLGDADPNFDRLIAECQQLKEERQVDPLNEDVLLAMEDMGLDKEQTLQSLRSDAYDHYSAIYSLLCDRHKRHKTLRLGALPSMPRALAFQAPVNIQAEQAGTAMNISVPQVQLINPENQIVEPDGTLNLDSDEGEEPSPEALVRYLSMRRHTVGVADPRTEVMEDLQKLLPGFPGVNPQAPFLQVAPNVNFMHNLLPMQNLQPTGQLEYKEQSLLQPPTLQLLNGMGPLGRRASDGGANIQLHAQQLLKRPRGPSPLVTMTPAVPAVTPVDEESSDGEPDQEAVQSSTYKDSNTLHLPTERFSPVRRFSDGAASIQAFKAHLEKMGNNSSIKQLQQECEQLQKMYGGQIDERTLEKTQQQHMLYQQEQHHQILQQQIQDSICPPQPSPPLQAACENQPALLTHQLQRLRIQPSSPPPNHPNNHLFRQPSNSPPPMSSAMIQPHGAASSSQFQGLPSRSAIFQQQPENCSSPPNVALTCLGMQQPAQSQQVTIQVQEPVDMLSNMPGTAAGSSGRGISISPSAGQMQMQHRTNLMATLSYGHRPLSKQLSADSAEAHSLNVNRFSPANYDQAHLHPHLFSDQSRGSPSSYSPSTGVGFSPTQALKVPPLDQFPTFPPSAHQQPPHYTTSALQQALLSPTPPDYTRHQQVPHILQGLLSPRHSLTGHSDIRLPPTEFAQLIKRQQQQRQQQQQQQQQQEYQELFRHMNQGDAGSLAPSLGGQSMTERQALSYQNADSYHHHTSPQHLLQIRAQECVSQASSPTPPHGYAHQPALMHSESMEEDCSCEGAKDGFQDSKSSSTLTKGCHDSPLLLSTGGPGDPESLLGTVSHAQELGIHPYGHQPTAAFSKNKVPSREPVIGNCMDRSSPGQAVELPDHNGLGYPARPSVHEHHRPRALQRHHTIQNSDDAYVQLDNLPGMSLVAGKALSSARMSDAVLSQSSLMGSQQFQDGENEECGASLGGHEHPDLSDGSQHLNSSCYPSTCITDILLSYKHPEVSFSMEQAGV
Structure (SMILES),pIC50 (SIK3),pIC50 (SIK1),pIC50 (SIK2)
"COc1cc(-c2cnc3cc(OCCN4CC(C)OC(C)C4)ccn23)cc(OC(F)F)c1C(=O)NC1CC1 (stereo not drawn) [Cpd 177, N-cyclopropyl-2-(difluoromethoxy)-4-[7-[2-(2,6-dimethylmorpholin-4-yl)ethoxy]imidazo [1,2-a]pyridin-3-yl]-6-methoxy-benzamide]",8.00 to 11.00,7.00 to 8.00,8.00 to 11.00
"COc1cc(-c2cnc3cc(OCCCOC(C)=O)ccn23)cc(OC(F)F)c1C(=O)NC1CC1 [Cpd 282, 3-[3-[4-(cyclopropylcarbamoyl)-3-(difluoromethoxy)-5-methoxy-phenyl]imidazo[1,2-a]pyridin-7-yl]oxypropyl acetate]",8.00 to 11.00,7.00 to 8.00,8.00 to 11.00
"COc1cc(-c2cnc3cc(OCCC#N)ccn23)cc(OC(F)F)c1C(=O)NC1CC1 [compound 31, 4-[7-(2-cyanoethoxy)imidazo[1,2-a]pyridin-3-yl]-N-cyclopropyl-2-(difluoromethoxy)-6-methoxy-benzamide]",< 6.30,< 6.30,< 6.30
"COc1cc(-c2cnc3cc(OCC4CCC(F)(F)C4)ccn23)cc(OC(F)F)c1C(=O)NC1CC1 (stereo not drawn) [compound 75, N-cyclopropyl-4-[7-[(3,3-difluorocyclopentyl)methoxy]imidazo[1,2-a]pyridin-3-yl]-2-(difluoromethoxy)-6-methoxy-benzamide]",8.00 to 11.00,8.00 to 11.00,8.00 to 11.00
"COc1cc(-c2cnc3cc(OCC4CCCO4)ccn23)cc(OC(F)F)c1C(=O)NC1CC1 (stereo not drawn) [compound 93, N-cyclopropyl-2-(difluoromethoxy)-6-methoxy-4-[7-(tetrahydrofuran-2-ylmethoxy)imidazo[1,2-a]pyridin-3-yl]benzamide]",8.00 to 11.00,7.00 to 8.00,8.00 to 11.00
"COc1cc(-c2cnc3cc(OC[C@@H](N)C4CCCCC4)ccn23)cc(OC(F)F)c1C(=O)NC1CC1 [compound 133, 4-[7-[(2S)-2-amino-2-cyclohexyl-ethoxy]imidazo[1,2-a]pyridin-3-yl]-N-cyclopropyl-2-(difluoromethoxy)-6-methoxy-benzamide]",8.00 to 11.00,7.00 to 8.00,8.00 to 11.00
"COCCOCCOc1ccn2c(-c3cc(OC)c(C(=O)NC4CC4)c(OC(F)F)c3)cnc2c1 [compound 38, N-cyclopropyl-2-(difluoromethoxy)-6-methoxy-4-[7-[2-(2-methoxyethoxy)ethoxy]imidazo[1,2-a]pyridin-3-yl]benzamide]",8.00 to 11.00,7.00 to 8.00,8.00 to 11.00
"COCCOc1ccn2c(-c3cc(OC)c(C(=O)NC4CC4)c(OC(F)F)c3)cnc2c1 [compound 70, N-cyclopropyl-2-(difluoromethoxy)-6-methoxy-4-[7-(2-methoxyethoxy)imidazo [1,2-a]pyridin-3-yl]benzamide]",8.00 to 11.00,7.00 to 8.00,8.00 to 11.00
"COc1cc(-c2cnc3cc(OCCO)ccn23)cc2c1C(=O)N(CC(F)(F)F)CC2 [Cpd 258, 6-[7-(2-hydroxyethoxy)imidazo [1,2-a]pyridin-3-yl]-8-methoxy-2-(2,2,2-trifluoroethyl)-3,4-dihydroisoquinolin-1-one]",8.00 to 11.00,6.30 to 7.00,7.00 to 8.00
"COc1cc(-c2cnc3cc(OCc4cocn4)ccn23)cc(OC(F)F)c1C(=O)NC1CC1 [compound 60, N-cyclopropyl-2-(difluoromethoxy)-6-methoxy-4-[7-(oxazol-4-ylmethoxy)imidazo[1,2-a]pyridin-3-yl]benzamide]",8.00 to 11.00,7.00 to 8.00,8.00 to 11.00
"COc1cc(-c2cnc3cc(OCC4CC4)ccn23)cc(OC(F)F)c1C(=O)NC1CC1 [compound 96, N-cyclopropyl-4-[7-(cyclopropylmethoxy)imidazo[1,2-a]pyridin-3-yl]-2-(difluoromethoxy)-6-methoxy-benzamide]",8.00 to 11.00,7.00 to 8.00,8.00 to 11.00
"COc1cc(-c2cnc3cc(OCc4ccncc4)ccn23)cc(OC(F)F)c1C(=O)NC1CC1 [compound 103, N-cyclopropyl-2-(difluoromethoxy)-6-methoxy-4-[7-(4-pyridylmethoxy)imidazo [1,2-a]pyridin-3-yl]benzamide]",8.00 to 11.00,7.00 to 8.00,8.00 to 11.00
"COc1cc(-c2cnc3cc(OC4CN(C)C4)ccn23)cc(OC(F)F)c1C(=O)NC1CC1 [compound 29, N-cyclopropyl-2-(difluoromethoxy)-6-methoxy-4-[7-(1-methylazetidin-3-yl)oxyimidazo[1,2-a]pyridin-3-yl]benzamide]",7.00 to 8.00,6.30 to 7.00,7.00 to 8.00

# Further lines, results first:
pIC50 (SIK3),pIC50 (SIK1),pIC50 (SIK2),Structure (SMILES)
8.00 to 11.00,7.00 to 8.00,8.00 to 11.00,"COc1cc(-c2cnc3cc(OCCN4CCOC(C5CC5)C4)ccn23)cc(OC(F)F)c1C(=O)NC1CC1 (stereo not drawn) [compound 196, N-cyclopropyl-4-[7-[2-(2-cyclopropylmorpholin-4-yl)ethoxy]imidazo[1,2-a]pyridin-3-yl]-2-(difluoromethoxy)-6-methoxy-benzamide]"
8.00 to 11.00,7.00 to 8.00,8.00 to 11.00,"COc1cc(-c2cnc3cc(OCC(N)C4CCCO4)ccn23)cc(OC(F)F)c1C(=O)NC1CC1 (stereo not drawn) [compound 136, 4-[7-(2-amino-2-tetrahydrofuran-2-yl-ethoxy)imidazo[1,2-a]pyridin-3-yl]-N-cyclopropyl-2-(difluoromethoxy)-6-methoxy-benzamide]"
8.00 to 11.00,7.00 to 8.00,8.00 to 11.00,"COc1cc(-c2cnc3cc(OCC(O)CN4CC[C@@H](O)C4)ccn23)cc(OC(F)F)c1C(=O)NC1CC1 (stereo partly drawn) [compound 376, N-cyclopropyl-2-(difluoromethoxy)-4-[7-[2-hydroxy-3-[(3R)-3-hydroxypyrrolidin-1-yl]propoxy]imidazo[1,2-a]pyridin-3-yl]-6-methoxy-benzamide]"
8.00 to 11.00,7.00 to 8.00,8.00 to 11.00,"COc1cc(-c2cnc3cc(OCCCN4CCC(S(C)(=O)=O)CC4)ccn23)cc(OC(F)F)c1C(=O)NC1CC1 [compound 347, N-cyclopropyl-2-(difluoromethoxy)-6-methoxy-4-[7-[3-(4-methylsulfonyl-1-piperidyl)propoxy]imidazo[1,2-a]pyridin-3-yl]benzamide]"
8.00 to 11.00,8.00 to 11.00,8.00 to 11.00,"COc1cc(-c2cnc3cc(OCCN(C)c4ccncn4)ccn23)cc(OC(F)F)c1C(=O)NC1CC1 [compound 239, N-cyclopropyl-2-(difluoromethoxy)-6-methoxy-4-[7-[2-[methyl(pyrimidin-4-yl)amino]ethoxy]imidazo [1,2-a]pyridin-3-yl]benzamide]"
6.30 to 7.00,< 6.30,7.00 to 8.00,"CCOc1cc(-c2cnc3cc(OCCN(C)C)ccn23)cc2c1C(=O)N(CC(F)(F)F)CC2 [compound 140, 6-[7-[2-(dimethylamino)ethoxy]imidazo[1,2-a]pyridin-3-yl]-8-ethoxy-2-(2,2,2-trifluoroethyl)-3,4-dihydroisoquinolin-1-one]"
8.00 to 11.00,7.00 to 8.00,7.00 to 8.00,"COc1cc(-c2cnc3cc(OCC4CCCN4C4COC4)ccn23)cc(OC(F)F)c1C(=O)NC1CC1 (stereo not drawn) [compound 289, N-cyclopropyl-2-(difluoromethoxy)-6-methoxy-4-[7-[[1-(oxetan-3-yl)pyrrolidin-2-yl]methoxy]imidazo[1,2-a]pyridin-3-yl]benzamide]"
8.00 to 11.00,7.00 to 8.00,8.00 to 11.00,"COc1cc(-c2cnc3cc(OC[C@H]4CCN(C5COC5)C4)ccn23)cc(OC(F)F)c1C(=O)NC1CC1 [compound 317, N-cyclopropyl-2-(difluoromethoxy)-6-methoxy-4-[7-[[(3S)-1-(oxetan-3-yl)pyrrolidin-3-yl]methoxy]imidazo[1,2-a]pyridin-3-yl]benzamide]"
8.00 to 11.00,8.00 to 11.00,8.00 to 11.00,"COc1cc(-c2cnc3cc(OCC4CCCNC4)ccn23)cc(OC(F)F)c1C(=O)NC1CC1 (stereo not drawn) [compound 143, N-cyclopropyl-2-(difluoromethoxy)-6-methoxy-4-[7-(3-piperidylmethoxy)imidazo[1,2-a]pyridin-3-yl]benzamide]"
7.00 to 8.00,< 6.30,6.30 to 7.00,"COc1cc(-c2cnc3cc(OCCN4CCOCC4)ccn23)cc(C)c1C(=O)NC1CC1 [compound 222, N-cyclopropyl-2-methoxy-6-methyl-4-[7-(2-morpholinoethoxy)imidazo[1,2-a]pyridin-3-yl]benzamide]"
7.00 to 8.00,7.00 to 8.00,8.00 to 11.00,"COc1cc(-c2cnc3cc(OCCN4CCOCC4)ccn23)cc2cc[nH]c(=O)c12 [compound 210, 8-methoxy-6-[7-(2-morpholinoethoxy)imidazo [1,2-a]pyridin-3-yl]-2H-isoquinolin-1-one]"
7.00 to 8.00,7.00 to 8.00,8.00 to 11.00,"CCN(CC)CCOCCOc1ccn2c(-c3cc(OC)c(C(=O)NC4CC4)c(OC(F)F)c3)cnc2c1 [compound 307, N-cyclopropyl-4-[7-[2-[2-(diethylamino)ethoxy]ethoxy]imidazo[1,2-a]pyridin-3-yl]-2-(difluoromethoxy)-6-methoxy-benzamide]"
